The source made the active and inactive calls. The rule behind the calls is not given here.
Target: T1, D-rhamnosyltransferase WbpZ (Pseudomonas aeruginosa (strain ATCC 15692 / PAO1 / 1C / PRS 101 / LMG12228)) (UniProt Q9HTC0)
T1 sequence (whole entry): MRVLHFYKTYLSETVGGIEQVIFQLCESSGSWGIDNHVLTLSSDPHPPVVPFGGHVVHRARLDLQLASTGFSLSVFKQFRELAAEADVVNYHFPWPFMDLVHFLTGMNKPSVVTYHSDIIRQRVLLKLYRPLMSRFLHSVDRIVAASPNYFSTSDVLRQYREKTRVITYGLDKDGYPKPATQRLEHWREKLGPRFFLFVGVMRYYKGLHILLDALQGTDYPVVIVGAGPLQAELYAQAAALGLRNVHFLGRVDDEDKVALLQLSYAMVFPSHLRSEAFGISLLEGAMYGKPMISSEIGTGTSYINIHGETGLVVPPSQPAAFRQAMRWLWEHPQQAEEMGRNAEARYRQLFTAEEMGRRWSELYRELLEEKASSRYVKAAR
Test: Activity at Pseudomonas aeruginosa PAO1 his-tagged D-rhamnosyltransferase WbpZ expressed in Escherichia coli BL21 at 0.25 mM after 1 hr by MALDI-MS analysis

## C[C@H]1O[C@H](OP(=O)(O)OP(=O)(O)OC[C@H]2O[C@@H](n3cnc4c(=O)[nH]c(N)nc43)[C@H](O)[C@@H]2O)[C@@H](O)[C@@H](O)[C@@H]1O
  Activity: Active

From ChEMBL document CHEMBL2390819, “A convenient synthesis of GDP-D-rhamnose: the donor substrate for D-rhamnosyltransferase WbpZ from Pseudomonas aeruginosa PAO1” (Bioorg Med Chem Lett, 2013)
